# From patent US3963735A, “Acylated 2-aminothiazole derivatives” (Egyt Gyogyszervegyeszeti Gyar, priority 1973, dated 1976)
# Structures can show the parent of a compound that is named as a salt. Where two headings read alike, the source gives them in different places.
# Tests used:
# [1] = system: gastric acid secretion; test: inhibition of gastric juice secretion, method of H. Shay et al.; assay type: in vivo; conditions: po; rat
# Experimental: (§1) All experiments were carried out on rats.
# [2] = system: Shay ulcer; test: Shay ulcer-inhibiting effect, method of H. Shay et al.; assay type: in vivo; conditions: po, rat
# Experimental: as §1
# [3] = system: immobilisation ulcer; test: immobilisation ulcer inhibition, method of Borsi et al.; assay type: in vivo; conditions: po, rat, p.o., read-out: Ulcer-inhibiting effect ED50, immob.
# Experimental: as §1
# [4] = system: insuline ulcer; test: insulin ulcer inhibition, method of Borsi et al.; assay type: in vivo; conditions: po, rat, p.o., read-out: Ulcer-inhibiting effect ED50, insulin
# Experimental: as §1
# [5] = acute toxicity; conditions: in vivo, rat
# Experimental: as §1
# [6] = system: ileum; conditions: rat
# Experimental: (§2) The effects of the new compounds exerted on the gastric acid secretion and Shay ulcer was examined according to the method of H. Shay et al. (Gastroenterology 5, 43/1945/), while their inhibition effect exerted on immobilisation and insuline ulcer was tested according to the method of Borsi et al. (Acta Pharm. Hung. 38, 151 /1968/). […] All experiments were carried out on rats. As reference substance, methantheline (diethyl-/2-hydroxyethyl/-methylammonium bromide xanthene-9-carboxylate) was used.
# [7] = in vivo; conditions: rat
# Experimental: as §2
# [8] = ip, i.p., read-out: Acute toxicity LD50, i.p.
# [9] = po, p.o., read-out: Acute toxicity LD50, p.o.
Compound,ED50 [1] [mg/kg],ED50 [2] [mg/kg],ED50 [3] [mg/kg],ED50 [4] [mg/kg],"LD50 [5, 8] [mg/kg]","LD50 [5, 9] [mg/kg]","Anticholinergic effect, ED50, ileum [6]",ED50 [7] [mg/kg]
"O=C(CNC1CC1)Nc1nc(-c2cccnc2)cs1 [Example 2, 2-cyclopropylamino-acetamido-4-(3'-pyridyl)-thiazole]",8,40,27,6,310,420,> 1 gamma,> 100
"CCNCC(=O)Nc1nc(-c2cccnc2)cs1 [Example 4, 2-(Ethylamino-acetamido)-4-(3'-pyridyl)-thiazole]",16,> 40,40,12,240,550,> 1 gamma,> 100
"CCN(CC)CC(=O)Nc1nc(-c2cccnc2)cs1 [Example 5, 2-(Diethylamino-acetamido)-4-(3'-pyridyl)-thiazole]",40,> 40,40,> 40,460,1400,> 1 gamma,> 100
"O=C(CNCc1ccccc1)Nc1nc(-c2cccnc2)cs1 [Example 8, 2-(Benzylamino-acetamido)-4-(3'-pyridyl)-thiazole]",20,> 40,–,–,> 1000,1000,> 1 gamma,> 100
"O=C(CNc1ccccc1)Nc1nc(-c2cccnc2)cs1 [Example 16, 2-(Phenylamino-acetamido)-4-(3'-pyridyl)-thiazole]",> 40,> 40,> 40,> 40,> 1000,> 2000,> 1 gamma,> 100
"O=C(CN1CCCCC1)Nc1nc(-c2cccnc2)cs1 [Example 17, 2-(Pentamethyleneimino-acetamido)-4-(3'-pyridyl)-thiazole]",> 40,> 40,> 40,> 40,650,1300,> 1 gamma,> 100
"O=C(CN1CCOCC1)Nc1nc(-c2cccnc2)cs1 [Example 18, 2-(4'-Morpholino-acetamido)-4-(3""-pyridyl)-thiazole]",> 40,> 40,–,–,> 1000,1300,> 1 gamma,> 100
"O=C(CN1CCCCCCC1)Nc1nc(-c2cccnc2)cs1 [Example 19, 2-(Heptamethyleneimino-acetamido)-4-(3'-pyridyl)-thiazole]",> 40,> 40,–,–,> 1000,> 2000,> 1 gamma,> 100
"CC(C)CNCC(=O)Nc1nc(-c2cccnc2)cs1 [Example 24, 2-(Isobutylamino-acetamido)-4-(3'-pyridyl)-thiazole dihydrochloride]",23,> 40,> 40,20,200,350,> 1 gamma,> 100
"CCCCCCNCC(=O)Nc1nc(-c2cccnc2)cs1 [Example 27, 2-(n-Hexylamino-acetamido)-4-(3'-pyridyl)-thiazole dihydrochloride]",30,50,25,20,300,450,> 1 gamma,> 100
"CCCCCCCCNCC(=O)Nc1nc(-c2cccnc2)cs1 [Example 28, 2-(n-Octylamino-acetamido)-4-(3'-pyridyl)-thiazole dihydrochloride]",40,> 40,–,–,200,800,> 1 gamma,> 100
"Cc1sc(NC(=O)CNC2CC2)nc1-c1cccnc1 [Example 31, 2-cyclopropylamino-acetamido-4-(3'-pyridyl)-5-methyl-thiazole dihydrochloride]",19,50,30,20,500,1000,> 1 gamma,> 100
"Cc1sc(NC(=O)CNCCO)nc1-c1cccnc1 [Example 32, 2-(2'-hydroxyethylamino-acetamido)-4-(3""-pyridyl)-5-methyl-thiazole]",35,> 40,> 40,> 40,400,> 1500,> 1 gamma,> 100
"O=C(CNC1CC1)Nc1nc(-c2ccncc2)cs1 [Example 33, 2-cyclopropylamino-acetamido-4-(4'-pyridyl)-thiazole dihydrochloride]",20,–,–,–,600,900,> 1 gamma,> 100
"CC[N+](C)(CC)CCOC(=O)C1c2ccccc2Oc2ccccc21 [Methantheline, diethyl-/2-hydroxyethyl/-methylammonium bromide xanthene-9-carboxylate, reference compound]",20,15.2,20.7,11.5,76,320,3×10^-^5 gamma,17
